Experimental data taken from patent US9302999B2, “Substituted triazoles as herbicides” (E. I. DU PONT DE NEMOURS AND COMPANY, priority 2012, dated 2016).

Experiments:
Assay type in all cases: in vivo
[1] = tested on: ryegrass, Italian (Italian ryegrass, Lolium multiflorum); test: Test E pre-/postemergence: ryegrass, Italian; details: scale 0 to 100
From the text: Seeds of plant species selected from corn (Zea mays), soybean (Glycine max), velvetleaf (Abutilon theophrasti), lambsquarters (Chenopodium album), poinsettia, wild (wild poinsettia, Euphorbia heterophylla), pigweed, palmer (palmer pigweed, Amaranthus palmeri), waterhemp (common waterhemp, Amaranthus rudis), smartweed (ladysthumb smartweed, Polygonum persicaria), surinam grass (Brachiaria decumbens), crabgrass, large (large crabgrass, Digitaria sanguinalis), crabgrass, Brazil (Brazilian crabgrass, Digitaria horizontalis), panicum, fall (fall panicum, Panicum dichotomiflorum), foxtail, giant (giant foxtail, Setaria faberii), foxtail, green (green foxtail, Setaria viridis), goosegrass (Eleusine indica), johnsongrass (Sorghum halepense), ragweed (common ragweed, Ambrosia elation), barnyardgrass (Echinochloa crus-galli), sandbur (southern sandbur, Cenchrus echinatus), arrowleaf sida (Sida rhombifolia), ryegrass, Italian (Italian ryegrass, Lolium multiflorum), dayflower, (VA) (Virginia dayflower, Commelina virginica), field bindweed (Convolvulus arvensis), cocklebur (common cocklebur, Xanthium strumarium), morningglory (Ipomoea coccinea), nightshade (eastern black nightshade, Solanum ptycanthum), kochia (Kochia scoparia), nutsedge, yellow (yellow nutsedge, Cyperus esculentus) and beggarticks (hairy beggarticks, Bidens pilosa) were planted into a silt loam soil and treated preemergence with test chemicals formulated in a non-phytotoxic solvent mixture which included a surfactant. At the same time, plants selected from these crop and weed species were planted in pots containing a growing medium comprising spaghnum peat moss, vermiculite, wetting agent and starter nutrients and treated with postemergence applications of some of the test chemicals formulated in the same manner. Plants ranged in height from 2 to 18 cm for postemergence treatments (1- to 4-leaf stage).
(§1) Treated plants and controls were maintained in a greenhouse for 14 to 21 days, after which time all species were compared to controls and visually evaluated. Plant response ratings, summarized in Table E, are based on a scale of 0 to 100 where 0 is no effect and 100 is complete control. A dash (-) response means no test result.

[2] = tested on: nutsedge, yellow (yellow nutsedge, Cyperus esculentus); test: Test F pre-/postemergence: nutsedge, yellow; details: Preemergence
From the text: (§2) Seeds of plant species selected from corn (Zea mays), soybean (Glycine max), velvetleaf (Abutilon theophrasti), lambsquarters (Chenopodium album), poinsettia, wild (wild poinsettia, Euphorbia heterophylla), pigweed, palmer (palmer pigweed, Amaranthus palmeri), waterhemp (common waterhemp, Amaranthus rudis), surinam grass (Brachiaria decumbens), crabgrass, Brazil (Brazilian crabgrass, Digitaria horizontalis), panicum, fall (fall panicum Panicum dichotomiflorum), crabgrass, large (large crabgrass, Digitaria sanguinalis), foxtail, giant (giant foxtail, Setaria faberii), foxtail, green (green foxtail Setaria viridis), goosegrass (Eleusine indica), ragweed (common ragweed, Ambrosia elatior), barnyardgrass (Echinochloa crus-galli), sandbur (southern sandbur, Cenchrus echinatus), arrowleaf sida (Sida rhombifolia), ryegrass, Italian (Italian ryegrass, Lolium multiflorum), dayflower, VA (Virginia (VA) dayflower, Commelina virginica), field bindweed (Convolvulus arvensis), cocklebur (common cocklebur, Xanthium strumarium), morningglory (Ipomoea coccinea), nightshade (eastern black nightshade, Solanum ptycanthum), kochia (Kochia scoparia), nutsedge, yellow (yellow nutsedge, Cyperus esculentus), johnsongrass (Sorghum halepense), smartweed (ladysthumb smartweed, Polygonum persicaria), and beggarticks (hairy beggarticks, Bidens pilosa), were planted into a silt loam soil and treated preemergence with test chemicals formulated in a non-phytotoxic solvent mixture which included a surfactant. At the same time, plants selected from these crop and weed species and also pigweed (Amaranthus retroflexus), waterhemp_RES1 (ALS/Triazine resistant common waterhemp, Amaranthus rudis) and waterhemp_RES2 (ALS/HPPD resistant common waterhemp, Amaranthus rudis) were planted in pots containing a planting medium comprising spaghnum peat moss, vermiculite, wetting agent and starter nutrients treated with postemergence applications of some of the test chemicals formulated in the same manner. Plants ranged in height from 2 to 18 cm for postemergence treatments (1- to 4-leaf stage).
as §1

[3] = tested on: lambsquarters (Chenopodium album); test: Test F pre-/postemergence: lambsquarters; details: Preemergence
From the text: as §2, §1

[4] = tested on: ragweed (common ragweed, Ambrosia elatior); test: Test F pre-/postemergence: ragweed; details: Preemergence
From the text: as §2, §1

[5] = tested on: ryegrass, Italian (Italian ryegrass, Lolium multiflorum); test: Test F pre-/postemergence: ryegrass, Italian
From the text: as §2, §1

[6] = tested on: Waterhemp; test: Test C postemergence: waterhemp
From the text: (§3) At the same time, plants selected from these crop and weed species and also barley (winter barley, Hordeum vulgare), canarygrass (Phalaris minor), chickweed (common chickweed, Stellaria media) windgrass (Apera spica-venti) and deadnettle (henbit deadnettle, Lamium amplexicaule) were planted in pots containing Redi-Earth® planting medium (Scotts Company, 14111 Scottslawn Road, Marysville, Ohio 43041) comprising spaghnum peat moss, vermiculite, wetting agent and starter nutrients and treated with postemergence applications of test chemicals formulated in the same manner. Plants ranged in height from 2 to 18 cm (1- to 4-leaf stage) for postemergence treatments.
as §1, with “13” for “14”, “15” for “21”, “C,” for “E,”

[7] = tested on: Waterhemp; test: Test C pre-/postemergence: waterhemp
From the text: Seeds of plant species selected from blackgrass (Alopecurus myosuroides), bromegrass, downy (downy bromegrass, Bromus tectorum), foxtail, green (green foxtail, Setaria viridis), ryegrass, Italian (Italian ryegrass, Lolium multiflorum), winter wheat (Triticum aestivum), wild oat (Avena fatua), galium (catchweed bedstraw, Galium aparine), bermudagrass (Cynodon dactylon), surinam grass (Brachiaria decumbens), cocklebur (common cocklebur, Xanthium strumarium), corn (Zea mays), large crabgrass (Digitaria sanguinalis), woolly cupgrass (Eriochloa villosa), foxtail, giant (giant foxtail, Setaria faberii), goosegrass (Eleusine indica), johnsongrass (Sorghum halepense), kochia (Kochia scoparia), lambsquarters (Chenopodium album), morningglory (Ipomoea coccinea), nightshade (eastern black nightshade, Solanum ptycanthum), nutsedge, yellow (yellow nutsedge, Cyperus esculentus), pigweed (Amaranthus retroflexus), ragweed (common ragweed, Ambrosia elation), soybean (Glycine max), common (oilseed) sunflower (Helianthus annuus), Russian thistle (Salsola kali) and velvetleaf (Abutilon theophrasti) were planted into a blend of loam soil and sand and treated preemergence with test chemicals formulated in a non-phytotoxic solvent mixture which included a surfactant.
as §3
as §1, with “13” for “14”, “15” for “21”, “C,” for “E,”

[8] = 16 g ai/ha, scale 0 to 100 (0 no effect, 100 complete control)
[9] = 31 g ai/ha, scale 0 to 100 (0 no effect, 100 complete control)
[10] = Preemergence, 16 g ai/ha, scale 0 to 100 (0 no effect, 100 complete control)
[11] = Preemergence, 31 g ai/ha, scale 0 to 100 (0 no effect, 100 complete control)
[12] = Preemergence, 125 g ai/ha, scale 0 to 100
[13] = Postemergence, 8 g ai/ha, scale 0 to 100
[14] = Postemergence, 16 g ai/ha, scale 0 to 100
[15] = Postemergence, 31 g ai/ha, scale 0 to 100
[16] = Postemergence, 62 g ai/ha, scale 0 to 100
[17] = 62 g ai/ha, scale 0 to 100 (0 no effect, 100 complete control)
[18] = Preemergence, 250 g ai/ha, scale 0 to 100, 0 no effect, 100 complete control
[19] = 4 g ai/ha, scale 0 to 100, 0 no effect, 100 complete control
[20] = 8 g ai/ha, scale 0 to 100, 0 no effect, 100 complete control
[21] = Postemergence, 31 g ai/ha, scale 0 to 100 (0 no effect, 100 complete control)

Row | SMILES | Plant response rating: Ryegrass, Italian ([1]; Preemergence, 16 g ai/ha) | Plant response rating: Ryegrass, Italian ([1]; Preemergence, 31 g ai/ha) | Plant response rating: Ryegrass, Italian ([1]; Preemergence, 62 g ai/ha) | Plant response rating: Ryegrass, Italian ([1]; Preemergence, 125 g ai/ha) | Plant response rating, Nutsedge, Yellow [2, 8] | Plant response rating, Nutsedge, Yellow [2, 9] | Plant response rating, Lambsquarters [3, 8] | Plant response rating, Lambsquarters [3, 9] | Plant response rating, Lambsquarters ([3]; 62 g ai/ha, scale 0 to 100) | Plant response rating, Ragweed [4, 8] | Plant response rating, Ragweed [4, 9] | Plant response rating, Ryegrass, Italian [5, 10] | Plant response rating, Ryegrass, Italian [5, 11] | Plant response rating, Waterhemp [6, 17] | Plant response rating, Waterhemp ([6]; 250 g ai/ha, scale 0 to 100) | further results
1 | Cc1nn(-c2ccc(F)cc2)nc1Cc1ccnc(C(F)(F)F)c1 [Compound 16, 4-[[2-(4-fluorophenyl)-5-methyl-2H-1,2,3-triazol-4-yl]methyl]-2-(trifluoromethyl)pyridine] | 0 | 30 | 50 | 98 |  |  |  |  |  |  |  |  |  |  |  | Plant response rating: Ryegrass, Italian ([1]; Preemergence, 8 g ai/ha): 0
2 | Cc1nn(-c2ccc(C(F)(F)F)cc2)nc1Cc1ccnc(C(F)(F)F)c1 [Compound 47, 4-[[5-methyl-2-[4-(trifluoromethyl)phenyl]-2H-1,2,3-triazol-4-yl]methyl]-2-(trifluoromethyl)pyridine] | 20 | 40 | 70 | 100 |  |  |  |  |  |  |  |  |  |  |  | Plant response rating: Ryegrass, Italian ([1]; Postemergence, 250 g ai/ha): 80; Plant response rating: Ryegrass, Italian ([1]; Postemergence, 16 g ai/ha): 10; Plant response rating: Ryegrass, Italian ([1]; Postemergence, 31 g ai/ha): 20; Plant response rating: Ryegrass, Italian ([1]; Postemergence, 62 g ai/ha): 30; Plant response rating: Ryegrass, Italian ([1]; Postemergence, 125 g ai/ha): 50; Plant response rating: Ryegrass, Italian ([1]; Preemergence, 250 g ai/ha): 100
3 | Cc1nn(-c2ccc(F)cc2)nc1Oc1ccnc(C(F)(F)F)c1 [Compound 129, 4-[[2-(4-fluorophenyl)-5-methyl-2H-1,2,3-triazol-4-yl]oxy]-2-(trifluoromethyl)pyridine] | 25 | 25 | 40 | 60 |  |  |  |  |  |  |  |  |  |  |  | Plant response rating: Ryegrass, Italian ([1]; Preemergence, 8 g ai/ha): 0
4 | Fc1ccc(-n2nc(Cc3ccnc(C(F)(F)F)c3)c(OCC(F)(F)F)n2)cc1 [Compound 142] |  |  |  |  | 0 | 0 | 0 | 65 | 98 | 0 | 0 | 5 | 65 |  |  | Plant response rating, Nutsedge, Yellow ([2]; 125 g ai/ha, scale 0 to 100): 0; Plant response rating, Lambsquarters ([3]; 125 g ai/ha, scale 0 to 100): 98; Plant response rating, Ragweed ([4]; 125 g ai/ha, scale 0 to 100): 40; Plant response rating, Ryegrass, Italian [5, 12]: 100
5 | Cc1nn(-c2ccc(F)c(F)c2)nc1Oc1ccnc(C(F)(F)F)c1 [Compound 145] |  |  |  |  |  |  |  |  |  |  |  |  |  |  |  | Plant response rating, Ryegrass, Italian [5, 13]: 5; Plant response rating, Ryegrass, Italian [5, 14]: 10; Plant response rating, Ryegrass, Italian [5, 15]: 20; Plant response rating, Ryegrass, Italian [5, 16]: 30; Plant response rating, Ryegrass, Italian ([5]; Postemergence, 125 g ai/ha, scale 0 to 100): 40
6 | CCCc1nn(-c2ccc(F)cc2)nc1Cc1ccnc(C(F)(F)F)c1 [Compound 153] |  |  |  |  | 0 | 0 | 0 | 65 | 98 | 5 | 5 | 5 | 5 | 98 | 98 | Plant response rating, Nutsedge, Yellow ([2]; 125 g ai/ha, scale 0 to 100): 10; Plant response rating, Nutsedge, Yellow ([2]; 250 g ai/ha, scale 0 to 100): 10; Plant response rating, Lambsquarters ([3]; 125 g ai/ha, scale 0 to 100): 98; Plant response rating, Lambsquarters ([3]; 250 g ai/ha, scale 0 to 100): 98; Plant response rating, Waterhemp [6, 9]: 98; Plant response rating, Ragweed ([4]; 125 g ai/ha, scale 0 to 100): 20; Plant response rating, Ragweed ([4]; 250 g ai/ha, scale 0 to 100): 80; Plant response rating, Waterhemp [7, 18]: 100; Plant response rating, Ryegrass, Italian [5, 12]: 65; Plant response rating, Ryegrass, Italian ([5]; Preemergence, 250 g ai/ha, scale 0 to 100): 95
7 | Cc1nn(-c2ccc(C(F)(F)F)c(F)c2)nc1Cc1ccnc(C(F)(F)F)c1 [Compound 162] |  |  |  |  | 35 | 35 | 98 | 98 | 98 | 0 | 70 | 35 | 80 | 100 | 100 | Plant response rating, Nutsedge, Yellow [2, 19]: 0; Plant response rating, Nutsedge, Yellow [2, 20]: 0; Plant response rating, Lambsquarters [3, 19]: 0; Plant response rating, Lambsquarters [3, 20]: 0; Plant response rating, Waterhemp [6, 9]: 98; Plant response rating, Ragweed [4, 19]: 0; Plant response rating, Ragweed [4, 20]: 0; Plant response rating, Waterhemp [7, 18]: 100; Plant response rating, Ryegrass, Italian ([5]; Postemergence, 4 g ai/ha, scale 0 to 100): 0; Plant response rating, Ryegrass, Italian [5, 13]: 0; Plant response rating, Ryegrass, Italian [5, 14]: 0; Plant response rating, Ryegrass, Italian [5, 15]: 0; Plant response rating, Ryegrass, Italian [5, 16]: 0; Plant response rating, Ryegrass, Italian ([5]; Preemergence, 4 g ai/ha, scale 0 to 100, 0 no effect, 100 complete control): 0; Plant response rating, Ryegrass, Italian ([5]; Preemergence, 8 g ai/ha, scale 0 to 100, 0 no effect, 100 complete control): 0
8 | CCc1nn(-c2ccc(F)cc2)nc1Oc1ccnc(C(F)(F)F)c1 [Compound 166] |  |  |  |  |  |  |  |  |  |  |  |  |  |  | 98 | Plant response rating, Waterhemp [7, 21]: 90
9 | CCCc1nn(-c2ccc(C(F)(F)F)c(F)c2)nc1Oc1ccnc(C(F)(F)F)c1 [Compound 185] |  |  |  |  |  |  |  |  |  |  |  |  |  | 90 |  | Plant response rating, Waterhemp [7, 21]: 90
